The subject of test [1] is A. fumigatus specific IgE antibodies in sera. Description: ELISA of peptide-coated plates with human sera, specific IgE binding. As to the method: Sera derived from 25 healthy persons and 30 culture proven allergic bronchopulmonary aspergillosis patients were probed with synthetic peptides of the present invention for A. fumigatus specific antibodies. NUNC ELISA plates were coated with 0-1 ug/ml of peptide in carbonate-bicarbonate buffer, 0.01 M, pH 9.6 for 2 h at 37° C. The unreacted sites were blocked with bovine serum albumin in phosphate buffered saline, 0.01 M, pH 7.4. Diluted sera (1:100) of patients or healthy controls was added to the wells and Incubated for 3 h at 37° C. […]
(In general: An ELISA detects its analyte on a solid surface through an enzyme-linked reagent.)

Test [2] deals with sensitised mast cells of ABPA patients. The test is described as follows: Histamine release from heparinised whole blood incubated with peptides. The note with it: 30 min at 37° C. Type of test: cell-based, human. As to the method: Whole blood (heparinised) was incubated with the peptides for 30 min at 37° C. in polystyrene plates followed by centrifugation and collection of supernatants. The supernatants were acylated and were assayed for acylated histamine by histamine assay kit (Immunotech International).

In test [3] the test system is Peripheral blood lymphocytes (PBL). Description: Cytokine analysis of PBMC supernatants incubated with peptides. Type of test: cell-based, human. The note with it: PBMC supernatant, 6 days culture with peptide. As to the method: Peripheral blood lymphocytes (PBL) from healthy donors and aspergillosis patients were fractionated and 2×10^6 cells/well were cultured in presence or absence of synthetic peptides for 6 days in RPMI 1640 medium with 10% autologous serum. The supernatant medium was collected for cytokine analysis and 0.5 mg/ml solution of MTT was added to each well for 30 min. before harvesting cultures with acidified isopropanol. Absorbance was measured at 590 nm.

The test system of test [4] is A. fumigatus specific IgG antibodies in sera. The test is described as follows: ELISA of peptide-coated plates with human sera, specific IgG binding. The note with it: diluted 1:100. As to the method: Sera derived from 25 healthy persons and 30 culture proven allergic bronchopulmonary aspergillosis patients were probed with synthetic peptides of the present invention for A. fumigatus specific antibodies. NUNC ELISA plates were coated with 0-1 ug/ml of peptide in carbonate-bicarbonate buffer, 0.01 M, pH 9.6 for 2 h at 37° C. The unreacted sites were blocked with bovine serum albumin in phosphate buffered saline, 0.01 M, pH 7.4. Diluted sera (1:100) of patients or healthy controls was added to the wells and Incubated for 3 h at 37° C. Washed plates received anti-human IgG-HRP conjugate for 1.5 h at 37° C. washed plates were then assayed with o-phenylene diamine substrate and read at 492 nm.

Test [5] concerns mixture of A. fumigatus allergens/antigens and purified 18 kD allergen/antigen. Description: Intraperitoneal immunisation of mice with peptide, serum IgG ELISA. Type of test: in vivo, BALB/c mice. The note with it: Immunised mice; 300 ug peptide i.p. with Freund's incomplete adjuvant; serum 30 days after immunization. As to the method:
Each synthetic peptide (300 ug/150 ul saline) was emulsified with an equal volume of Freund's incomplete adjuvant and used for intraperitoneal immunisation of 3 BALB/c mice. IgG antibodies in the serum collected from these mice 30 days after immunization bound with mixture of A. fumigatus allergens/antigens and purified 18 kD allergen/antigen in ELISA.

Regarding “INQQLNPK (listed as Aspergillus fumigatus) [pep 3, 8 aminoacids peptide, aa 6-14 (also printed aa 6-13) of the 18 kD allergen/antigen]”, the “Absorbance at 490 nm, Specific IgE” value in test [1] (Normal sera) stood at 0.042. For the same substance, the “Absorbance at 490 nm, Specific IgE” value in test [1] (Patient sera (ABPA)) is on record as 0.256. Besides, in test [2] (Normal whole blood), the Histamine released is 65 nM. The Histamine released in test [2] (Patient (ABPA) whole blood) was determined as 369 nM. In test [3], this substance yielded an IL-2 of 80 pg/mL, an IL-4 of 92 pg/mL, an IL-6 of 620 pg/mL and an IL-10 of 220 pg/mL. In test [3], this substance yielded a gamma-IFN of 168 pg/mL. Further, in test [4] (Normal sera), the “Absorbance at 490 nm, Specific IgG” value is reported as 0.011. Moreover, the “Absorbance at 490 nm, Specific IgG” value in test [4] (Patient sera (ABPA)) was determined as 0.674. Moreover, the “Absorbance at 490 nm, specific IgG antibodies in mice” value (“Absorbance at 490 nm … in mice” below) in test [5] stood at 0.434.
Consider “INQQLNPKTNKWEDK (listed as Aspergillus fumigatus) [pep 4, 15 aminoacids peptide, aa 6-20 of the 18 kD allergen/antigen]”, for which the “Absorbance at 490 nm, Specific IgE” value in test [1] (Normal sera) was determined as 0.028. For the same substance, the “Absorbance at 490 nm, Specific IgE” value in test [1] (Patient sera (ABPA)) was 0.235. Also, the Histamine released in test [2] (Normal whole blood) amounted to 58 nM. In test [2] (Patient (ABPA) whole blood), the Histamine released is given as 392 nM. Moreover, in test [3], the IL-2 was found to be 400 pg/mL, the IL-4 was 28 pg/mL, the IL-6 is 120 pg/mL and the IL-10 was 40 pg/mL. In test [3], this substance showed a gamma-IFN of 520 pg/mL. Moreover, in test [4] (Normal sera), the “Absorbance at 490 nm, Specific IgG” value worked out at 0.006. In addition, the “Absorbance at 490 nm, Specific IgG” value in test [4] (Patient sera (ABPA)) worked out at 0.845. For the same substance, the “Absorbance at 490 nm … in mice” value in test [5] stood at 0.526.
Take “LNPKTNKWEDK (listed as Aspergillus fumigatus) [pep 2, 11 aminoacids peptide, aa 10-20 of the 18 kD allergen/antigen]”: the “Absorbance at 490 nm, Specific IgE” value in test [1] (Normal sera) stood at 0.039. For the same substance, the “Absorbance at 490 nm, Specific IgE” value in test [1] (Patient sera (ABPA)) is on record as 0.473. In test [2] (Normal whole blood), the Histamine released was determined as 82 nM. For the same substance, the Histamine released in test [2] (Patient (ABPA) whole blood) came out at 402 nM. Further, in test [3], the IL-2 was determined as 280 pg/mL, the IL-4 worked out at 48 pg/mL, the IL-6 worked out at 140 pg/mL and the IL-10 was 80 pg/mL. In test [3], this substance gave a gamma-IFN of 320 pg/mL. Further, the “Absorbance at 490 nm, Specific IgG” value in test [4] (Normal sera) is given as 0.09. Further, in test [4] (Patient sera (ABPA)), the “Absorbance at 490 nm, Specific IgG” value came to 0.852. In test [5], the “Absorbance at 490 nm … in mice” value is listed as 0.636.
On to LNPKTNKWEDKRY [pep 6], for which the “Absorbance at 490 nm, Specific IgE” value in test [1] (Normal sera) was 0.033. Further, the “Absorbance at 490 nm, Specific IgE” value in test [1] (Patient sera (ABPA)) turned out to be 0.145. In addition, the Histamine released in test [2] (Normal whole blood) was 62 nM. Further, in test [2] (Patient (ABPA) whole blood), the Histamine released was 278 nM. In test [3], this substance came in with an IL-2 of 120 pg/mL, an IL-4 of 62 pg/mL, an IL-6 of 760 pg/mL and an IL-10 of 340 pg/mL. Moreover, the gamma-IFN in test [3] came to 240 pg/mL. Moreover, the “Absorbance at 490 nm, Specific IgG” value in test [4] (Normal sera) worked out at 0.004. Further, in test [4] (Patient sera (ABPA)), the “Absorbance at 490 nm, Specific IgG” value was found to be 0.828. Besides, the “Absorbance at 490 nm … in mice” value in test [5] is given as 0.547.
For the substance TNKWEDK [pep 5], the “Absorbance at 490 nm, Specific IgE” value in test [1] (Normal sera) stood at 0.032. The “Absorbance at 490 nm, Specific IgE” value in test [1] (Patient sera (ABPA)) is reported as 0.208. The Histamine released in test [2] (Normal whole blood) was 43 nM. In addition, the Histamine released in test [2] (Patient (ABPA) whole blood) stood at 356 nM. Further, in test [3], the IL-2 worked out at 260 pg/mL, the IL-4 turned out to be 24 pg/mL, the IL-6 came to 180 pg/mL and the IL-10 is 36 pg/mL. The gamma-IFN in test [3] stood at 660 pg/mL. Further, the “Absorbance at 490 nm, Specific IgG” value in test [4] (Normal sera) turned out to be 0.012. In addition, in test [4] (Patient sera (ABPA)), the “Absorbance at 490 nm, Specific IgG” value was 0.850. For the same substance, the “Absorbance at 490 nm … in mice” value in test [5] is on record as 0.498.

Values taken from patent publication US6902901B2, “Polypeptides useful for diagnosis of Aspergillus fumigatus and a process of preparing the same” (Council of Scientific and Industrial Research, priority 1998, dated 2005).
